Columns and labels:
[1] = biological target: Autotaxin (Homo sapiens, UniProt Q13822); test: Inhibition of human ATX using LPC (16:0) as substrate after 30 mins by horseradish peroxidase/choline oxidase coupled enzyme based spectrophotometric analysis
[2] = biological target: Cytochrome P450 3A4 (Homo sapiens, UniProt P08684); test: Time-dependent inhibition of human liver microsomes CYP3A4; assay type: ADME
Sequence of Cytochrome P450 3A4 (P08684 whole entry): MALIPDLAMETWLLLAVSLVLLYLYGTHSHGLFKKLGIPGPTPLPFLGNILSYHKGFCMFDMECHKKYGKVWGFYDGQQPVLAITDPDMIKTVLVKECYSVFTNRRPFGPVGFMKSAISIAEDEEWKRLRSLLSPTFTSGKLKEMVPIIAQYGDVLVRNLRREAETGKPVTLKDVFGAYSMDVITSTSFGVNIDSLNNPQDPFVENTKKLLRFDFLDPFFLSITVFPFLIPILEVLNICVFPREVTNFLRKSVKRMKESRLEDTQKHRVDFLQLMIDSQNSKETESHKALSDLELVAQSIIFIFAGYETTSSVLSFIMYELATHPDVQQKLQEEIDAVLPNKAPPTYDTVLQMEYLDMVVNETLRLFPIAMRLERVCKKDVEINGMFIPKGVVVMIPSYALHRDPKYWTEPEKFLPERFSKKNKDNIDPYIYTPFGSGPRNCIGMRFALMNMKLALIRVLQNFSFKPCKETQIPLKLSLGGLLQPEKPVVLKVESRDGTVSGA

Row | Compound | IC50 [1] | TDI [2]
1 | CCc1nc2c(C)cc(C3CCN(CC(=O)N4CC(O)C4)CC3)cn2c1N(C)c1nc(-c2ccc(F)cc2)c(C#N)s1 | 0.103 µM | Not Active
2 | CCc1nc2ccc(C3CCN(CC(=O)N4CC(O)C4)CC3)nn2c1N(C)c1ccc(C#N)c(-c2ccc(F)cc2)n1 | 0.192 µM | Active
3 | CCc1nc2ccc(N3CCN(CC(=O)N4CC(O)C4)CC3)nn2c1N(C)c1nc(-c2ccc(F)cc2)c(C#N)s1 | 0.06 µM | Active
